Measured values reported in patent EP0015584A2, “Nucleotides, methods for their preparation and medicaments” (Gauri, Kailash Kumar, Dr. Prof., priority 1979, dated 1980).

Experiments:
Herpes-Simplex-Viren = assay: Inhibition of herpes simplex virus replication in tissue cultures of chick embryo fibroblasts; format: cell-based; conditions: Gewebekulturen von Hühnerembryofibroblasten; Konzentration 10 µg/ml
Experimental: Dem «-XDU-Monophosphat kommt eine ungewöhnliche Eigenschaft zu, die vom Fachmann nicht vorhersehbar war. Es ist nämlich in der Lage, die Vermehrung von Herpes-Simplex-Viren zu hemmen. In Gewebekulturen von HUhnerembryofibroblasten hemmt α-ÄDU-MP in einer Konzentration von 10 µg/ml deutlich die Virusvermehrung. Unter gleicher Bedingung ist α-ÄDU selbst ohne Wirkung.

DNS = assay: Incorporation into DNA (stated property, no method described); conditions: acts virostatically; no test described
resistente Herpesviren = assay: Local treatment of herpes keratitis produced with resistant strains; format: in vivo; conditions: Kaninchen, lokal, bis zu 7 mal täglich, bis zu 11 Tage; JDU-MP 0,1 bis 1 %, ÄDU-MP 0,1 bis 8 %, TFT-MP 0,1 bis 2 %, ARA-A-MP 0,2 bis 2 %, Acycloguanosin-Monophosphat 0,5 bis 5 %
Experimental: Man züchtet Herpes-Viren in Gewebekulturen von menschlichen Fibroblastzellen über 1 bis 5 Passagen in Gegenwart von Nukleosiden, wie beispielsweise ÄDU (Äthyldesoxyuridin), Konzentration: 20 µg/ml, TFT (Trifluorthymidin) Konzentration 5 bis 10 µg/ml, ARA-A-MP (Arabinofuranosyladenin-Monophosphat),Konzentration 20 µg/ml, Acycloguanosin (ACG), Konzentration 5 bis 30 µg/ml, wobei der Saatvirus auf die Cornea der Tiere (Hamster, Kaninchen) durch Aufträufeln übertragen wird. Zwei Stunden nach der Übertragung erfolgt die Behandlung der Cornea lokal mit den entsprechenden Nukleosiden in den oben angegebenen Konzentrationen. Dabei zeigt sich, daß die Viren für die Nukleoside resistent werden. Die Bewertung der Infektion erfolgt durch Anfärben der Hornhaut mit Fluorescin-Na-Lösung (1 %) und anschließende Farbphotodokumentation.
Die Behandlung der Herpes-Keratitis bei Kaninchen, erzeugt mit den resistenten Stämmen, erfolgt lokal mit folgenden Wirkstoffen: JDU-MP (Joddesoxyuridin-Monophosphat), Konzentration 0,1 bis 1 %, ÄDU-MP (Äthyldesoxyuridin-Monophosphat), Konzentration: 0,1 bis 8 %, TFT-MP (Trifluor- thymidin-Monophosphat), Konzentration: 0,1 bis 2 %, ARA-A-MP (Arabinofuranosyladenin-Monophosphat), Konzentration: 0,2 bis 2 %, Acycloguanosin-Monophosphat, Konzentration: 0,5 bis 5 %, bis zu 7 mal täglich für die Dauer von bis zu 11 Tagen.

Row | Compound | Hemmung der Virusvermehrung (Herpes-Simplex-Viren) | Einbau in die DNS (DNS) | Bekämpfung der durch resistente Herpesviren verursachten Infektion (Herpes-Keratitis) (resistente Herpesviren)
1 | CCc1cn([C@@H]2C[C@H](O)[C@@H](COP(=O)(O)O)O2)c(=O)[nH]c1=O [α-ÄDU-MP, α-5-Äthyl-2'-deoxyuridin-5'-monophosphat] | deutlich | ohne in die DNS eingebaut zu werden | –
2 | Nc1nc2c(ncn2COCCOP(=O)(O)O)c(=O)[nH]1 [Acycloguanosin-Monophosphat] | – | – | wirksam bekämpfen
3 | CCc1cn([C@H]2C[C@H](O)[C@@H](COP(=O)(O)O)O2)c(=O)[nH]c1=O [ÄDU-MP, Äthyldesoxyuridin-Monophosphat] | – | – | wirksam bekämpfen
4 | O=c1[nH]c(=O)n([C@H]2C[C@H](O)[C@@H](COP(=O)(O)O)O2)cc1I [JDU-MP, Joddesoxyuridin-Monophosphat] | – | – | wirksam bekämpfen
5 | CCc1cn([C@@H]2C[C@H](O)[C@@H](CO)O2)c(=O)[nH]c1=O [α-ÄDU, α-5-Äthyl-2'-deoxyuridin, reference compound] | ohne Wirkung | – | –
6 | O=c1[nH]c(=O)n([C@H]2C[C@H](O)[C@@H](COP(=O)(O)O)O2)cc1C(F)(F)F [TFT-MP, Trifluor- thymidin-Monophosphat] | – | – | wirksam bekämpfen
